The text below walks through data of US20220340597A1, “HEXAHYDRO-1H-PYRAZINO[1,2-A]PYRAZINE COMPOUNDS FOR THE TREATMENT OF AUTOIMMUNE DISEASE” (Hoffmann-La Roche Inc., priority 2019, published 2022).

Molecules are shown by their SMILES.

The target in one data set is T1, human TLR9 (Homo sapiens, UniProt Q9NR96).
T1 construct: host or cells: HEK293 (HEK-Blue hTLR9)
T1 sequence (Q9NR96 26-1032): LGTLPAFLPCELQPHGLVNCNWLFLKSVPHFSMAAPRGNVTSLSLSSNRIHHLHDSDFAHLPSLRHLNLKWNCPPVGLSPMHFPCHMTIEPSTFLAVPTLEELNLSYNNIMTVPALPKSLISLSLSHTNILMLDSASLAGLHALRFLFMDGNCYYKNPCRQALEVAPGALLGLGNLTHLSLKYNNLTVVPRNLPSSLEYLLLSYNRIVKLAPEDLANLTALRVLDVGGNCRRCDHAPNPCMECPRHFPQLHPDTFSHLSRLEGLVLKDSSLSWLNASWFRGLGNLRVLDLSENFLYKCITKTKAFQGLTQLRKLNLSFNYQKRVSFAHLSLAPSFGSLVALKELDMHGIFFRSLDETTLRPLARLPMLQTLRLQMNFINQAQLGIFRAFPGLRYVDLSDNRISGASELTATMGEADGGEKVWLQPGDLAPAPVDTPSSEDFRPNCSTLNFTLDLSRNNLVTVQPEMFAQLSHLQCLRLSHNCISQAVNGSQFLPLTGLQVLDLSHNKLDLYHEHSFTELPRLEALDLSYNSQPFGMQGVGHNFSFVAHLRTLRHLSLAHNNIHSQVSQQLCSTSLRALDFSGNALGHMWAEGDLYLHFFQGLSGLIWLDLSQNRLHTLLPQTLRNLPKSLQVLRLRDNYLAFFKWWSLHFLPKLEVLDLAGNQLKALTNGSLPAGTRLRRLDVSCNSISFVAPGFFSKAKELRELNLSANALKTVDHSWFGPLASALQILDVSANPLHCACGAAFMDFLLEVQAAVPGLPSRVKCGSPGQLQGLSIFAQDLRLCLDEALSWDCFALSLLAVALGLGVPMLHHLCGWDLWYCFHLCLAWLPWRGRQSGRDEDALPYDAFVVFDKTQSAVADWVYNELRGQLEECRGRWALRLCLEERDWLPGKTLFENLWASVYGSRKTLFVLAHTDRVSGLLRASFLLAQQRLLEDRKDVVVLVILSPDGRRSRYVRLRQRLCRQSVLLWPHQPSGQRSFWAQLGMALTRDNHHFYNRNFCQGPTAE
The experiment in a line: HEK293-Blue-hTLR-9 cells assay. Conditions: HEK293-Blue-hTLR9 cells, ODN2006 stimulation, 20 hrs, SEAP reporter; read-out: HEK/hTLR9 IC50. The data set is classed as cell-based. The procedure: The following tests were carried out in order to determine the activity of the compounds of formula (I) and (Ia) in HEK293-Blue-hTLR-7/8/9 cells assay.
HEK293-Blue-hTLR-9 Cells Assay:
A stable HEK293-Blue-hTLR-9 cell line was purchased from InvivoGen (Cat. #: hkb-htlr9, San Diego, Calif., USA). These cells were originally designed for studying the stimulation of human TLR9 by monitoring the activation of NF-κB. A SEAP (secreted embryonic alkaline phosphatase) reporter gene was placed under the control of the […] minimal promoter fused to five NF-κB and AP-1-binding sites. The SEAP was induced by activating NF-κB and AP-1 via stimulating HEK-Blue hTLR9 cells with TLR9 ligands. Therefore, the reporter expression was declined by TLR9 antagonist under the stimulation of a ligand, such as ODN2006 (Cat. #: tlr1-2006-1, Invivogen, San Diego, Calif., USA), for incubation of 20 hrs. The cell culture supernatant SEAP reporter activity was determined using QUANTI-Blue™ kit (Cat. #: rep-qb1, Invivogen, San Diego, Calif., USA) at a wavelength of 640 nm, a detection medium that turns purple or blue in the presence of alkaline phosphatase.
Then 20 μL of the supernatant from each well was incubated with 180 μL Quanti-blue substrate solution at 37° C. for 2 h and the absorbance was read at 620-655 nm using a spectrophotometer. The signaling pathway that TLR9 activation leads to downstream NF-κB activation has been widely accepted, and therefore similar reporter assay was modified for evaluating TLR9 antagonist.

For a further data set, the target named is T2, hERG channel (Homo sapiens, UniProt Q12809).
T2 construct: expressed in transfected cells; host or cells: CHO (Chinese hamster ovary), CHOhERG
The experiment in a line: hERG channel inhibition assay (patch-clamp, CHOhERG cells). The data set is classed as cell-based. The conditions noted are these: CHOhERG cells, whole-cell patch-clamp; for IC20: human, CHO cells stably expressing hERG (CHOhERG). The protocol: hERG Channel Inhibition Assay:
The hERG K^+ channels were cloned in humans and stably expressed in a CHO (Chinese hamster ovary) cell line. CHOhERG cells were used for patch-clamp (voltage-clamp, whole-cell) experiments. Cells were stimulated by a voltage pattern to activate hERG channels and conduct IKhERG currents (rapid delayed outward rectifier potassium current of the hERG channel). After the cells were stabilized for a few minutes, the amplitude and kinetics of IKhERG were recorded at a stimulation frequency of 0.1 Hz (6 bpm). Thereafter, the test compound was added to the preparation at increasing concentrations. For each concentration, an attempt was made to reach a steady-state effect, usually, this was achieved within 3-10 min at which time the next highest concentration was applied. The amplitude and kinetics of IKhERG are recorded in each concentration of the drug which were compared to the control values (taken as 100%). (references: Redfern W S, Carlsson L, Davis A S, Lynch W G, MacKenzie I, Palethorpe S, Siegl P K, Strang I, Sullivan A T, Wallis R, Camm A J, Hammond T G. 2003; Relationships between preclinical cardiac electrophysiology, clinical QT interval prolongation and torsade de pointes for a broad range of drugs: evidence for a provisional safety margin in drug development. Cardiovasc. Res. 58:32-45, Sanguinetti M C, Tristani-Firouzi M. 2006; hERG potassium channels and cardiac arrhythmia. Nature 440:463-469, Webster R, Leishman D, Walker D. 2002; Towards a drug concentration effect relationship for QT prolongation and torsades de pointes. Curr. Opin. Drug Discov. Devel. 5:116-26).
The calculation of hERG IC20/TLR7/8/9 IC50 below serves as early selectivity index to assess hERG liability.
Background: Block of hERG is tested as a sign of cardiac risk.

T2 sequence (Q12809 whole entry): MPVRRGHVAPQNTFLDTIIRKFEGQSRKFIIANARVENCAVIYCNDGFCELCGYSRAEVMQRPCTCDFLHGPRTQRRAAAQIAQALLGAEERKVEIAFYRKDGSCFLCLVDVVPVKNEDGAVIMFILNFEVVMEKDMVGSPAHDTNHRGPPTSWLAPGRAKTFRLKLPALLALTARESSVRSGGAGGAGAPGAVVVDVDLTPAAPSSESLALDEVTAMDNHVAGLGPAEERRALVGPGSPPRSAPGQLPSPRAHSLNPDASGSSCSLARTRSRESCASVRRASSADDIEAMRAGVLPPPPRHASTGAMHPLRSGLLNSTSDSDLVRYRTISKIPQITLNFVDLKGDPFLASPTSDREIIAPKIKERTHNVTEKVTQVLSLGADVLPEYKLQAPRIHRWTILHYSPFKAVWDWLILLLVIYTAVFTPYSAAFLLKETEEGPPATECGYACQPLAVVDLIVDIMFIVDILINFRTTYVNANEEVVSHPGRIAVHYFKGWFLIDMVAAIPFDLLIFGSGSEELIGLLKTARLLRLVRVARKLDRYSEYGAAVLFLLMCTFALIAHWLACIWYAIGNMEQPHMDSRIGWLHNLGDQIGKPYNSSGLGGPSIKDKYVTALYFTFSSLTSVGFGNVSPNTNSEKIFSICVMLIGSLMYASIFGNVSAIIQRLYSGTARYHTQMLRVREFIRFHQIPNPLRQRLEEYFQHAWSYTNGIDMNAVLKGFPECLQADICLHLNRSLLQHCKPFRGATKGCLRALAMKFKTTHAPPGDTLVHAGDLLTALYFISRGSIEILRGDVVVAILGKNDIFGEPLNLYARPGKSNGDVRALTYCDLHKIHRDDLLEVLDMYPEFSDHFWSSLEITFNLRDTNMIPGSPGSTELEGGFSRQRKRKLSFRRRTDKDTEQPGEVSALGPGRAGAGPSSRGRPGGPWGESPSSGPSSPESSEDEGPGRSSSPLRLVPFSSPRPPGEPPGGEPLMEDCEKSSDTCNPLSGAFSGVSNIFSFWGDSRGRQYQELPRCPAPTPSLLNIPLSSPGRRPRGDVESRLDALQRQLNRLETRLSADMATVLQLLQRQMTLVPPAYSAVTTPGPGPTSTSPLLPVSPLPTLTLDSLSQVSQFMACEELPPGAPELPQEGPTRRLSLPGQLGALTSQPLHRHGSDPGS

For orientation: IC20 means the concentration at which the effect reaches the 20% level. On to `C[C@@H]1CN(c2ccc(C#N)c3ncccc23)C[C@@H]2CN(CCc3ccc(N4C[C@@H](N)[C@@H](F)C4)nc3)CCN21` [Example 17, 5-[(4R,9aS)-8-[2-[6-[(3R,4S)-3-amino-4-fluoro-pyrrolidin-1-yl]-3-pyridyl]ethyl]-4-methyl-3,4,6,7,9,9a-hexahydro-1H-pyrazino[1,2-a]pyrazin-2-yl]quinoline-8-carbonitrile], for which the values for the IC50 on human TLR9 and on hERG channel were 0.047 µM and more than 20 µM, respectively. Moreover, on hERG channel, the IC20 is more than 10 µM.

`C[C@@H]1CN(c2ccc(C#N)c3ncccc23)C[C@H]2CN(c3cccc4c3CCNC4)CCN21` (relative stereo) [Example 47]: the IC50 at human TLR9 was 0.117 µM.

For the compound `[2H]c1ccc2c(N3C[C@@H]4CN(c5ncc(N6CCOC[C@H](N)C6)cc5C)CCN4[C@@H](C)C3)ccc(C#N)c2n1` [Example 110, 5-[(4S,9aR)-8-[5-[(6R)-6-amino-1,4-oxazepan-4-yl]-3-methyl-2-pyridyl]-4-methyl-3,4,6,7,9,9a-hexahydro-1H-pyrazino[1,2-a]pyrazin-2-yl]-2-deuterio-quinoline-8-carbonitrile], the IC50 at human TLR9 is 0.07 µM.

Consider `C[C@@H]1CN(c2ccc(C#N)c3ncccc23)C[C@@H]2CN(CCc3ccc(N4C[C@@H](N)[C@H](F)C4)nc3)CCN21` [Example 18, 5-[(4R,9aS)-8-[2-[6-[(3R,4R)-3-amino-4-fluoro-pyrrolidin-1-yl]-3-pyridyl]ethyl]-4-methyl-3,4,6,7,9,9a-hexahydro-1H-pyrazino[1,2-a]pyrazin-2-yl]quinoline-8-carbonitrile], for which the IC50 on human TLR9 was 0.065 µM.

With `[2H]c1ccc2c(N3C[C@@H]4CN(c5ncc(N6CC7(CC(N)C7)C6)cc5C)CCN4[C@H](C)C3)ccc(C#N)c2n1` [Example 101, 5-[(4R,9aR)-8-[5-(6-amino-2-azaspiro[3.3]heptan-2-yl)-3-methyl-2-pyridyl]-4-methyl-3,4,6,7,9,9a-hexahydro-1H-pyrazino[1,2-a]pyrazin-2-yl]-2-deuterio-quinoline-8-carbonitrile], the IC50 on human TLR9 was determined as 0.081 µM.

Regarding `C[C@@H]1CN(c2ccc(C#N)c3ncccc23)C[C@@H]2CN(c3cncc4c3CCNC4)CCN21` [Example 44, 5-[(4R,9aR)-4-methyl-8-(5,6,7,8-tetrahydro-2,7-naphthyridin-4-yl)-3,4,6,7,9,9a-hexahydro-1H-pyrazino[1,2-a]pyrazin-2-yl]quinoline-8-carbonitrile], the IC50 on human TLR9 was 0.05 µM.

As for `C[C@@H]1CN(c2ccc(C#N)c3ncccc23)C[C@H]2CN(c3cncc4c3CCNC4)CCN21` [Example 42, 5-[(4R,9aS)-4-methyl-8-(5,6,7,8-tetrahydro-2,7-naphthyridin-4-yl)-3,4,6,7,9,9a-hexahydro-1H-pyrazino[1,2-a]pyrazin-2-yl]quinoline-8-carbonitrile], the IC50 at human TLR9 was 0.05 µM; at hERG channel, more than 10 µM. This compound also registered an IC20 at hERG channel of 4.35 µM.

In the case of `[2H]c1ccc2c(N3C[C@@H]4CN(CCc5ccc(N6C[C@@H](N)[C@@H](F)C6)nc5)CCN4[C@H](C)C3)ccc(C#N)c2n1` [Example 63, 5-[(4R,9aS)-8-[2-[6-[(3R,4S)-3-amino-4-fluoro-pyrrolidin-1-yl]-3-pyridyl]ethyl]-4-methyl-3,4,6,7,9,9a-hexahydro-1H-pyrazino[1,2-a]pyrazin-2-yl]-2-deuterio-quinoline-8-carbonitrile], the IC50 at human TLR9 was found to be 0.078 µM.
